pIC50: −log10 of the molar value.
Tests used:
NTera-2 cells [1] = assay: MTT cell proliferation / cytotoxicity assay; assay type: cell-based, human
Procedure: In order to evaluate the feasibility of this method for delivering a toxic dose of platinum, cytotoxicity assays of SWNT-Pt(IV) were conducted using the testicular carcinoma cell line NTera-2. Example 3 below describes these experiments, in which the MTT assay was used to determine cell viability following treatment for four days with either the free platinum(IV) complex 2 or with the SWNT-tethered analog (FIG. 2). Compared to cis-[Pt(NH3)2Cl2] (IC50=0.05 μM) the cytotoxicity of the asymmetrically substituted platinum(IV) compound 2 is insignificant (IC50>>0.5 mM). […] Without wishing to be bound to any particular theory, it is thought that this increase is due to the two-fold increase in uptake of Pt relative to free cisplatin.
Cell Culture. Cells from the human testicular cancer line NTera-2 were incubated at 37° C. in 5% CO2 and grown in DMEM (Dulbecco's Modified Eagle's Medium) medium supplemented with 10% fetal bovine serum and 1% penicillin/streptomycin. Cells were passaged every 3 to 4 days and reseeded from frozen stocks after reaching passage number 20.
Cell Proliferation Assay. Ntera-2cells were seeded into 96 well plates at a confluence of 1000 cells per well and incubated for 24 h. The cells were then treated with either cisplatin, compound 1, compound 2, or SWNT-Pt(IV) and incubated for 96 h. The cells were then treated with 20 μL of 3-(4,5-dimethylthiazol-2-yl)-2,5-diphenyltetrazolium bromide (MTT) (5 mg/mL in PBS) and incubated for 5 h. The medium was removed, the cells were lysed with 100 μL of DMSO, and the absorbance of the purple formazan was recorded at 550 nm. The results are presented in FIG. 2, FIG. 7, FIG. 8, and FIG. 9. […] (cisplatin).

[2] = Cyclic voltammetry, reduction potential; assay type: physicochemical; conditions: vs Ag/AgCl; for reduction potential (reduction peak) extrapolated to 0.0 mV s^-1 scan rate: pH 6.0, 0.1 M KCl phosphate buffer; for reduction potential extrapolated to 0.0 mV s^-1 scan rate: pH 7.4, 0.1 M KCl phosphate buffer
Procedure: Each platinum complex was dissolved to a final concentration of 2.0 mM in 0.1 M aqueous KCl buffered with phosphate to either pH 6.0 or 7.4. Cyclic voltammetric (CV) measurements were performed with a model 263 EG&G Princeton Applied Research electrochemical analyzer at varying scan rates of 20-100 mV s^−1. The solvent was degassed by several freeze-pump-thaw cycles and measurements were taken under an atmosphere of argon. The working electrode was made of glassy carbon, the reference electrode was Ag/AgCl, and the counter electrode was a platinum wire. Reported potentials are extrapolated to 0.0 mV s^−1 scan rates to account for the irreversible behavior of the reduction processes.^7

NTera-2 cells [3] = assay: Platinum concentration of cell extracts (cytosolic and nuclear fractions) by AAS; assay type: cell-based, human; conditions: 1 μM platinum, 3 h incubation
Procedure: In order to investigate the mechanism by which the SWNTs transport Pt(IV) compounds into cells and release them once inside we devised a strategy to track their intracellular location.
Cell Extract Preparation and Analysis. NTera-2 cells were grown to >90% confluence in 175 cm^2 flasks. These cells were treated separately with 1 μM concentrations of cisplatin, c,c,t-[Pt(NH3)2Cl2(OEt)(O2CCH2CH2CO2H)], and SWNT-Pt(IV) and subsequently incubated for three h at 37° C. The cells were washed thrice with PBS and released by trypsinization into PBS. The cell solutions were centrifuged at 800×g for 10 min and the cell pellets resuspended in 100 μL of ice-cold lysis buffer (1.0 mM DTT (dithiothreitol), 1.0 mM PMSF (phenylmethanesulphonylfluoride), 10 mM KCl, 10 mM MgCl2, pH 7.5) for 15 min. The cells were centrifuged again and the pellets resuspended in 40 μL of ice-cold lysis buffer. The cell membranes were lysed by 10 strokes of a 28 ga. syringe. The resulting suspension was centrifuged at 11,000×g for 20 min and the supernatant was collected as the cytosolic fraction of the cells. […] The lysate was shaken at 1000 rpm for 45 min at […] and then centrifuged at 20,000×g for 10 min at 4° C. The supernatant was collected as the nuclear fraction. The platinum concentration of all fractions was determined by AAS. The protein concentration for each fraction was determined by the bicinchoninic acid (BCA) assay and the total platinum concentration was expressed as nanograms of platinum per microgram of protein (Table 1).

Compound | cytotoxicity (in words) (NTera-2 cells [1]) | reduction potential (reduction peak) extrapolated to 0.0 mV s^-1 scan rate [2] | reduction potential extrapolated to 0.0 mV s^-1 scan rate [2] | pIC50 (NTera-2 cells [1]) | Platinum concentration of cell extracts, Cytosolic (NTera-2 cells [3]) | Platinum concentration of cell extracts, Nuclear (NTera-2 cells [3])
CC[O][Pt]([NH2])([NH2])([OH])([Cl])[Cl] [Compound 1, c,c,t-[Pt(NH3)2Cl2(OH)(OEt)]] | only toxic to cells in micromolar concentrations | −0.499 V | −0.604 V | – | – | –
CC[O][Pt]([NH2])([NH2])([Cl])([Cl])[O]C(=O)CCC(=O)O [Compound 2, c,c,t-[Pt(NH3)2Cl2(OEt)(O2CCH2CH2CO2H)]] | nearly nontoxic | −0.623 V | −0.724 V | < 6.30 | 3 Pt(ng)/protein(mg) | 6 Pt(ng)/protein(mg)
cis-[Pt(NH3)2Cl2] [reference compound] | significantly more toxic | – | – | 7.30 | 11 Pt(ng)/protein(mg) | 14 Pt(ng)/protein(mg)
